Molecules are shown by their SMILES. Numbered stars: 1 amine (or outer) side, 2 acyl side, 3 side chain; on linkers, the order of the positions; unused ones are H or OH. Square brackets hold non-standard residues; d marks the D form. Peptide text beside a SMILES is read from it. N(2-(2-PhOPh)Et)Gly = O=C(O)CNCCc1ccccc1Oc1ccccc1; Gly(N-3,5-(OMe)2-Ph) = COc1cc(NCC(=O)O)cc(OC)c1; X1 = COc1ccc([C@H](C)N(CC(=O)[*:2])[*:1])cc1; N((CH2)3OiPr)Gly = CC(C)OCCCNCC(=O)O

Data on 1 compound can be found in paper PMC6199279, “Design of Peptoid-peptide Macrocycles to Inhibit the β-catenin TCF Interaction in Prostate Cancer” (Nature Communications, 2018).

Assay [1] concerns the target β-catenin:TCF4 interaction (Homo sapiens, UniProt P35222). Description: biochemical. As to the method:
(§1) We next characterized the dose response curves for compound 13 in the Wnt and AR luciferase reporters. The linear version of 13 (linear 13: NH2-|N-mpp, N-dmp, N-ipp, N-Smpe, N-Smpe, D-Ala|-OH) was used as a control compound. […] To test direct binding, we pre-formed dynamic light scattering (DLS) with β-catenin in the presence of vehicle, compound 13, and α-cyclodextrin. […] HEK293 cells were transiently transfected with a plasmid expressing full length, myc-tagged TCF4. After 48 h treatment with either vehicle (DMSO) or 10 µM 13, cells were lysed and myc-TCF4 protein was immunoprecipitated.

Assay [2] concerns TOP-Flash Wnt luciferase reporter. Description: TOP-Flash Wnt luciferase reporter assay in LNCaP-abl cells. Format: cell-based.
From the text: Using a TOP-Flash Wnt luciferase reporter, we tested the 12 oligomers identified from in silico modeling for inhibitory activity (Fig. 2b). […] We also employed a 3 × -Androgen Response Element (ARE) luciferase reporter to measure the effect on AR activity. […] As additional controls, we obtained previously developed, commercially available Wnt inhibitors and tested them in the Wnt luciferase assay (Supplementary Fig. 5).
as §1
LNCaP-abl and LNCaP-95 cells were cultured in indicator free RPMI 1640 media (Life) supplemented with 10% charcoal stripped FBS, 1% pennicillin/streptomycin, and 1% L-Glutamine. HEK-293 Cells were cultured in DMEM media (Life) supplemented with 10%FBS and 1% pennicillin/streptomycin. A549 and U2OS cells were cultured in RPMI 1640 media (Life) and McCoy’s 5 A modified media (Life), respectively, both supplemented with 10%FBS and 1% pennicillin/streptomycin. LNCaP-abl, and LNCaP-95 cell lines were generous gifts from Z. Culig (Innsbruck Medical University, Austria) and J. Isaacs (Johns Hopkins University, Baltimore, MD), respectively. Cell lines were authenticated by STR profiling (Genetica Cell Line Testing; Burlington, NC). A549 and U2OS were purchased from ATCC (product numbers CCL-185 and HTB-96). Cell lines were routinely screened for mycoplasma. Luciferase assays were conducted using stably transfected TOP-flash and 3xARE LNCaP-abl cell lines. For the Wnt pathway, TOP-Flash LNCaP-abl cells were treated with 1 nM siAPC (a 1:1:1 mix of Ambion Silencer Silect siAPC RNA, ID#s s1433, s1434, s1435) for 24 h and seeded into 384-well plates at 5000 cells/well, followed by 24 h of treatment with compound. For the AR-pathway, 3xARE LNCaP-abl cells were seeded into 384-well plates at 5000 cells per well, treated for 48 h with compound, with the addition of R1881 for the final 8 h. Both were measured using the ONE-Glo detection kit (Promega) and data is standardized to CellTiter-Fluor (Promega) viability readings to account for potential variations in well to well cell number. Control Wnt inhibitors were purchased from Sigma with the exception of PRI-724 which was purchased from Selleckchem. Co-immunoprecipitation was carried out using HEK293 cells transfected with either myc-TCF (addgene #32738) or myc-TCF dominant negative (addgene #32739) followed by 48 h of treatment with compound. Cells were lysed using Triton lysis buffer and 1 mg total protein was incubated overnight at 4 C with 40 µl anti-cMyc magnetic beads (Thermo). Total protein concentration in cell lysates were determined using Pierce Rapid Gold BCA Protein Assay Kit (Thermo). The beads were washed 3× with lysis buffer then boiled in 2X sample loading dye. SDS-PAGE and western blotting were performed using anti-Myc (CST 2276) and anti-β-catenin (CST 8480). Both antibodies were diluted in blocking buffer 1:1000 and incubated overnight at 4 C with the membrane. […]
(In general: In a reporter assay the amount or activity of a reporter protein is the signal.)

The subject of assay [3] is LNCaP-95 cells. The settings on record: read-out: IC50 proliferation, LNCaP-95; 5 days of treatment. As to the method:
(§2) To test the effect of 13 in a model of prostate cancer, we used the LNCaP-abl and LNCaP-95 cell lines. These cell lines were derived from androgen-sensitive LNCaP cells, and passaged in androgen-deprived media to mimic the development of castration resistance in patient tumors[54],[55]. We first isolated mRNA from LNCaP-abl and LNCaP-95 cells treated with vehicle, 10 µM 13 and linear 13 for 24 h to check the expression of endogenous Wnt and AR target genes (Fig. 4a). […] AR-V7 is particularly challenging to target as most AR antagonists target the ligand binding domain. […] To check if the changes in Wnt and AR target gene expression translated into effects on growth, the viability of LNCaP-abl and LNCaP-95 cells was determined after 5 days of treatment (Fig. 4b).
(§3) Data are presented as mean and SD (n = 3) of three independent experiments (a) or representative of three independent experiments (b, c).
(§4) LNCaP-abl and LNCaP-95 cells were cultured in indicator free RPMI 1640 media (Life) supplemented with 10% charcoal stripped FBS, 1% pennicillin/streptomycin, and 1% L-Glutamine. […] Both were measured using the ONE-Glo detection kit (Promega) and data is standardized to CellTiter-Fluor (Promega) viability readings to account for potential variations in well to well cell number. […] Total protein concentration in cell lysates were determined using Pierce Rapid Gold BCA Protein Assay Kit (Thermo). […]

Assay [4] concerns LNCaP-abl cells. The conditions noted are these: read-out: IC50 proliferation, LNCaP-abl; 5 days of treatment. On the procedure: as §2, §3, §4

β-catenin:TCF4 interaction, sequence (P35222 134-668): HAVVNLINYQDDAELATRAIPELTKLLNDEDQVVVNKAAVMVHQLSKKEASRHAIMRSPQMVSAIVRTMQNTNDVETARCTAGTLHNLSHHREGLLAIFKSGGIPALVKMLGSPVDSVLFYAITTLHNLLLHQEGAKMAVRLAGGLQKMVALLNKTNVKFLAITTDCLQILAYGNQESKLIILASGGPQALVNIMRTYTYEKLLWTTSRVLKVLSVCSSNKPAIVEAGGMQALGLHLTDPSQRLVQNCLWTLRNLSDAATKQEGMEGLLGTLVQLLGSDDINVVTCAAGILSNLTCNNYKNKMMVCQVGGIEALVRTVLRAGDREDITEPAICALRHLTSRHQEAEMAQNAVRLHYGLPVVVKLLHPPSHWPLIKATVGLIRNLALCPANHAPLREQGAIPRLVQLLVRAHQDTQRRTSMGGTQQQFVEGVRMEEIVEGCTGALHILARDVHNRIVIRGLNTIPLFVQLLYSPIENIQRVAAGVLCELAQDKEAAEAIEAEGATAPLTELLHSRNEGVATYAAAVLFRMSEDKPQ

With `COc1ccc([C@H](C)N2CC(=O)N[C@H](C)C(=O)N(CCc3ccccc3Oc3ccccc3)CC(=O)N(c3cc(OC)cc(OC)c3)CC(=O)N(CCCOC(C)C)CC(=O)N([C@@H](C)c3ccc(OC)cc3)CC2=O)cc1` [Compound 13] (cyclo([dA][N(2-(2-PhOPh)Et)Gly][Gly(N-3,5-(OMe)2-Ph)][N((CH2)3OiPr)Gly][X1][X1])), the IC50 in assay [1] is 5440 nM; in assay [2] (TOP-Flash LNCaP-abl cells, siAPC knockdown, 24 h compound, ± SD of three replicates, read-out: IC50 for Wnt luciferase inhibition), 105 nM; in assay [3] it was 782 nM; in assay [4], 195 nM. Also, the “Wnt inhibitory activity (TOP-Flash luciferase)” value in assay [2] (10 µM compound, relative to vehicle) is given as “more effective”.
